Some test systems named below: Staphylococcus aureus MR; Enterococcus faecalis A4; Escherichia coli MG1655; Bacillus subtilis 168 HT; Escherichia coli 078; Escherichia coli K99; Acinetobacter baumannii; Escherichia coli UB1005; Escherichia coli K88; Escherichia coli ER2566.
Common to all, as to test: ≥ marks a high value that may be exact or a test limit, other limits are often not marked, values filed in µg/mL are converted to µM
Test [1] concerns Bacillus amyloliquefaciens ATCC 23842.
The subject of test [2] is Escherichia coli ATCC 25922.
Test [3] deals with Proteus mirabilis ATCC 35659.
In test [4] the test system is Pseudomonas aeruginosa PAO1.
In test [5] the test system is Bacillus licheniformis ATCC 14580.
The subject of test [6] is Bacillus cereus ATCC 14579.
Test [7] deals with Enterococcus faecium 5F-10.
In test [8] the test system is Staphylococcus aureus ATCC 29213.
The test system of test [9] is Staphylococcus aureus 215.
Test [10] relates to Salmonella enterica ATCC H9812.
For test [11], the system named is Bacillus subtilis ATCC 6051.
The subject of test [12] is Enterococcus faecalis 1F-1.
The subject of test [13] is Enterococcus faecium 4W-9.
Test [14] concerns Listeria monocytogenes CGMCC 1.1075.
For test [15], the system named is Salmonella typhimurium ATCC 7731.
The subject of test [16] is Pseudomonas aeruginosa ATCC 27853.
For test [17], the system named is Salmonella enterica subsp. enterica serovar Typhimurium ATCC 14028.
Test [18] has as its system Salmonella enterica subsp. enterica serovar Pullorum ATCC 7913.
Test [19] concerns Staphylococcus aureus ATCC 25923.
Test [20] has as its system Staphylococcus aureus ATCC 43300.
Test [21] deals with Staphylococcus epidermidis ATCC 12228.
The test system of test [22] is Enterococcus faecalis ATCC 29212.
Test [23] has as its system Bacillus subtilis CMCC 63501.
Test [24] deals with Bacillus cereus CGMCC 1.932.
The subject of test [25] is Escherichia coli DH5alpha.
In test [26] the test system is Pseudomonas aeruginosa NBRC 13275.
Test [27] deals with Staphylococcus aureus NBRC 13276.
Test [28] relates to Bacillus subtilis KCTC 2217.
The test system of test [29] is Acinetobacter baumannii KCTC 2508.
Test [30] concerns Escherichia coli CMCC 44102.
The test system of test [31] is Pseudomonas aeruginosa ATCC 10419.
For test [32], the system named is Bacillus subtilis ATCC 11060.
Test [33] has as its system Salmonella enterica subsp. enterica serovar Pullorum C79-13.
The test system of test [34] is Salmonella enterica subsp. enterica serovar Typhimurium C77-31.
Test [35] concerns Pseudomonas aeruginosa ATCC 21630.
Test [36] deals with Pseudomonas aeruginosa ATCC 21625.
The subject of test [37] is Escherichia coli CVCC 1515.

SMILES strings stand for the structures. ≈ marks a conversion by molar mass, not a printed value. Where “and” joins values, the source holds several entries; their conditions need not be identical. Equal values may be shown once. Some results are limits rather than exact numbers.

As usually defined, the MIC is the least concentration at which growth counts as inhibited. For `CC(C)C[C@H](NC(=O)[C@H](CC(C)C)NC(=O)[C@@H](N)CCC(=O)O)C(=O)N[C@@H](CO)C(=O)N[C@@H](CCCCN)C(=O)N[C@H](C(=O)N[C@@H](CC(=O)O)C(=O)O)C(C)C` [ELLSKVD], the MIC in [1] was at least 159 µM; in [2], 79.7 µM (≈ 64 µg/mL); against Staphylococcus aureus MR, at least 79.7 µM; in test [3], at least 79.7 µM; in test [4], above 159 µM; against Enterococcus faecalis A4, at least 159 µM. In addition, the MIC in [5] was at least 159 µM; in test [6] it was at least 159 µM; in [7], at least 159 µM; in test [8], 79.7 µM (≈ 64 µg/mL); in test [9], at least 79.7 µM; in test [10] it was at least 159 µM. The minimum inhibitory concentration (MIC) in [11], in [12] and in test [13] was at least 159 µM throughout.

For `CC[C@H](C)[C@H](NC(=O)[C@H](CCCCN)NC(=O)[C@H](Cc1ccccc1)NC(=O)[C@H](CCCN=C(N)N)NC(=O)[C@H](CCCCN)NC(=O)[C@@H](NC(=O)[C@@H](NC(=O)[C@H](Cc1ccccc1)NC(=O)CN)[C@@H](C)CC)C(C)C)C(=O)N[C@@H](CC(C)C)C(=O)N[C@H](C(=O)O)C(C)C` [GFIVKRFKILV], the MIC against Escherichia coli MG1655 and in the test with Bacillus subtilis 168 HT was at least 97 µM each time.

With `NCC(=O)N[C@@H](CCCN=C(N)N)C(=O)N[C@@H](Cc1c[nH]c2ccccc12)C(=O)N[C@@H](CCCN=C(N)N)C(=O)N[C@@H](Cc1c[nH]c2ccccc12)C(=O)N[C@@H](Cc1c[nH]c2ccccc12)C(=O)N[C@@H](Cc1c[nH]c2ccccc12)C(=O)N[C@@H](CCCN=C(N)N)C(=O)N[C@@H](Cc1c[nH]c2ccccc12)C(=O)N[C@@H](CCCN=C(N)N)C(=O)N[C@@H](Cc1c[nH]c2ccccc12)C(N)=O` [GRWRWWWRWRW], the MIC was 4 µM (≈ 7.26 µg/mL) in the test with Escherichia coli 078; 2 µM (≈ 3.63 µg/mL) in test [14]; 16 µM (≈ 29.1 µg/mL) in [15]; 2 µM (≈ 3.63 µg/mL) against Escherichia coli K99; 4 µM (≈ 7.26 µg/mL) in test [4]; 8 µM (≈ 14.5 µg/mL) in [16]. Moreover, the MIC in test [17] came to 2 µM (≈ 3.63 µg/mL); in the test with Acinetobacter baumannii, 2 µM (≈ 3.63 µg/mL); in the test on Escherichia coli UB1005, 4 µM (≈ 7.26 µg/mL); in test [18] it was 2 µM (≈ 3.63 µg/mL); in test [19] it was 2 µM (≈ 3.63 µg/mL); in test [20], 2 µM (≈ 3.63 µg/mL). Moreover, the MIC in [21] was 4 µM (≈ 7.26 µg/mL); in [22], 2 µM (≈ 3.63 µg/mL); against Escherichia coli K88 it was 2 µM (≈ 3.63 µg/mL); in test [23], 8 µM (≈ 14.5 µg/mL); in test [24], 8 µM (≈ 14.5 µg/mL).

Regarding `CC(=O)N[C@@H](CCCCN)C(=O)N[C@@H](Cc1ccccc1)C(=O)N[C@@H](CC(C)C)C(=O)N[C@@H](Cc1cnc[nH]1)C(=O)N[C@@H](CO)C(=O)N[C@@H](C)C(=O)N[C@@H](CCCCN)C(=O)N[C@@H](CCCCN)C(=O)N[C@@H](Cc1ccccc1)C(=O)NCC(=O)N[C@@H](CCCCN)C(=O)N[C@@H](C)C(=O)N[C@@H](Cc1ccccc1)C(=O)N[C@H](C(N)=O)C(C)C` [KFLHSAKKFGKAFV], the MIC is at least 200 µM in test [25], at least 200 µM in test [26] and at least 400 µM in test [27].

Consider `CC(C)C[C@H](NC(=O)[C@H](CCCCN)NC(=O)[C@H](CCCCN)NC(=O)[C@H](CC(C)C)NC(=O)[C@H](CC(C)C)NC(=O)[C@@H]1CCCN1C(=O)[C@H](CCCCN)NC(=O)[C@H](CCCCN)NC(=O)[C@H](CC(C)C)NC(=O)[C@H](CC(C)C)NC(=O)[C@H](CCCCN)NC(=O)[C@H](CCCCN)NC(=O)[C@H](Cc1c[nH]c2ccccc12)NC(=O)[C@@H](N)CCCCN)C(N)=O` [KWKKLLKKPLLKKL], for which the MIC in test [28] was 3.13 µM (≈ 5.52 µg/mL); in test [19], 1.56 µM and > 0.78 µM; in test [29], 12.5 µM (≈ 22 µg/mL).

Consider `CC[C@H](C)[C@H](NC(=O)[C@H](CCCCN)NC(=O)[C@H](CCCCN)NC(=O)[C@H](CC(C)C)NC(=O)[C@H](CCCN=C(N)N)NC(=O)[C@H](Cc1c[nH]c2ccccc12)NC(=O)[C@H](CCCN=C(N)N)NC(=O)[C@@H](NC(=O)[C@H](CCCCN)NC(=O)[C@H](Cc1c[nH]c2ccccc12)NC(=O)[C@H](CCCN=C(N)N)NC(=O)[C@H](CC(C)C)NC(=O)[C@H](CCCN=C(N)N)NC(=O)[C@H](CCCN=C(N)N)NC(=O)[C@H](Cc1ccccc1)NC(=O)[C@@H](N)CCCN=C(N)N)[C@@H](C)O)C(=O)N[C@@H](Cc1c[nH]c2ccccc12)C(=O)N[C@@H](Cc1c[nH]c2ccccc12)C(=O)N1CCC[C@H]1C(=O)N[C@@H](Cc1ccccc1)C(=O)N[C@@H](CC(C)C)C(=O)N[C@@H](CCCN=C(N)N)C(=O)N[C@@H](CCCN=C(N)N)C(N)=O` [RFRRLRWKTRWRLKKIWWPFLRR], for which the MIC in the test with Escherichia coli 078 came to 4.01 µM (≈ 13.4 µg/mL); in test [30] it was 2 µM (≈ 6.7 µg/mL); in [16], 4.01 µM (≈ 13.4 µg/mL); in test [17], 4.01 µM (≈ 13.4 µg/mL); in test [31] it was 2 µM (≈ 6.7 µg/mL); against Escherichia coli UB1005, 0.987 µM (≈ 3.3 µg/mL). Further, the MIC turned out to be 0.987 µM (≈ 3.3 µg/mL) in [32]; 4.01 µM (≈ 13.4 µg/mL) in test [33]; 2 µM (≈ 6.7 µg/mL) in test [34]; 4.01 µM (≈ 13.4 µg/mL) in test [35]; 7.99 µM (≈ 26.7 µg/mL) in [19]; 4.01 µM (≈ 13.4 µg/mL) in [21]. Also, the MIC is 0.987 µM (≈ 3.3 µg/mL) in test [22]; 0.509 µM (≈ 1.7 µg/mL) against Escherichia coli K88; 2 µM (≈ 6.7 µg/mL) in [8]; 0.987 µM (≈ 3.3 µg/mL) against Escherichia coli ER2566; 2 µM (≈ 6.7 µg/mL) in test [36]; 0.509 µM (≈ 1.7 µg/mL) in test [37].
